According to patent US10723754B2, “2′,4′-bridged nucleosides for HCV infection” (IDENIX PHARMACEUTICALS LLC, priority 2012, dated 2020):
pEC50, pIC50: −log10 of the molar value.

Target: T1, HCV polymerase wild-type genotype 1a protein (Hepatitis C virus genotype 1a, UniProt P27958)
T1 construct: used to generate recombinant HCV polymerases; made in house
Assay: HCV polymerase enzyme assay, wild-type 1a
Type: biochemical
Conditions: not given
Excerpt: (§1) Test compounds in the form of nucleoside triphosphates were examined for inhibitory activity against purified HCV polymerase in a standard assay. Bacterial expression constructs encoding the approximately 65 kDa HCV genotype 1b NS5B protein were used to generate recombinant HCV polymerases (with a deletion of the 21 carboxy terminal amino acids). The wild-type genotype 1b protein, genotype 1b protein containing the S282T mutation, wild-type genotype 1a protein, wild-type genotype 2a protein, wild-type genotype 3a protein and wild-type genotype 4a protein were expressed and purified for use in the enzymatic activity assay.
(§2) The enzymatic activity assay measured the inhibitory effect of increasing concentrations of test compound on the incorporation of α-[^33P]-labeled nucleotide into trichloroacetic acid-precipitable material. […]
(§3) Reactions were terminated by the addition of ice-cold trichloroacetic acid and sodium pyrophosphate to promote precipitation of newly-synthesized ribonucleic acid. Precipitable material from the reactions was collected by filtration onto 96-well filter plates, washed extensively with water, and quantified by liquid scintillation.
(§4) The inhibitory activity of test compounds was determined by fitting results to dose-response curves using XLfit software.

T1 sequence (P27958 2421-2990): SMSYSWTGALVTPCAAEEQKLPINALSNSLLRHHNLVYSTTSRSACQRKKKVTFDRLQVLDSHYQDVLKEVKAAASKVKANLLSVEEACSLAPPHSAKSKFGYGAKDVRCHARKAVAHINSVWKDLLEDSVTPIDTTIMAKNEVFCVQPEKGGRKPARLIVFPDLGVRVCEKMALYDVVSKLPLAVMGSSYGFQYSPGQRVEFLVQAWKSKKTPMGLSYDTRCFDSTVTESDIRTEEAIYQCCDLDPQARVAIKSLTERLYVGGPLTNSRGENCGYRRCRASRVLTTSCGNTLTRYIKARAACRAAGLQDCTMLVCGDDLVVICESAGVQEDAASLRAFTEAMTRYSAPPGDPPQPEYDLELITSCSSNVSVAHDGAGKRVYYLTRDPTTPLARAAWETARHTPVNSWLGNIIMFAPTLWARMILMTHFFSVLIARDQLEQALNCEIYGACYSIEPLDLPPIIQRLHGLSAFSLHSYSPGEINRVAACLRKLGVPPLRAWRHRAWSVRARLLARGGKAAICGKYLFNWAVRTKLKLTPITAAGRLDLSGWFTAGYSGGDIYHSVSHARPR

SMILES	pIC50
Nc1nc2c(ncn2[C@@H]2O[C@@]3(COP(=O)(O)OP(=O)(O)OP(=O)(O)O)CO[C@@H]2[C@@H]3O)c(=O)[nH]1 [Compound 103]	6.00 to 6.60

Target: T2, HCV polymerase wild-type genotype 2a protein (Hepatitis C virus genotype 2a, UniProt Q99IB8)
T2 construct: used to generate recombinant HCV polymerases; made in house
Assay: HCV polymerase enzyme assay, wild-type 2a
Type: biochemical
Conditions: purified recombinant polymerase; compounds as nucleoside triphosphates
Excerpt: as §1, §2, §3, §4

SMILES	pIC50
Nc1nc2c(ncn2[C@@H]2O[C@@]3(COP(=O)(O)OP(=O)(O)OP(=O)(O)O)CO[C@@H]2[C@@H]3O)c(=O)[nH]1 [Compound 103]	6.00 to 6.60

Test system: not listed separately
Assay: in vitro
Conditions: human

SMILES	CC50 at 72 h
Nc1nc2c(ncn2[C@@H]2O[C@@]3(CO)CN[C@@H]2[C@@H]3O)c(=O)[nH]1 [Compound 38]	> 50 µM

Test system: not listed separately
Assay: Cytotoxicity evaluation (CellTiter-Blue Cell Viability Assay)
Conditions: human

SMILES	CC50 at 72 h
[N-]=[N+]=N[C@H]1[C@H]2OC[C@]1(CO)O[C@H]2n1ccc(=O)[nH]c1=O [Compound 33]	> 50 µM
CC(=O)N[C@H]1[C@H]2OC[C@]1(CO)O[C@H]2n1ccc(=O)[nH]c1=O [Compound 35]	> 50 µM
CS(=O)(=O)N[C@H]1[C@H]2OC[C@]1(CO)O[C@H]2n1ccc(=O)[nH]c1=O [Compound 36]	> 50 µM
COC(=O)N[C@H]1[C@H]2OC[C@]1(CO)O[C@H]2n1ccc(=O)[nH]c1=O [Compound 37]	> 50 µM

Target: T3, HCV wild-type genotype 1b NS5B protein (Hepatitis C virus genotype 1b, UniProt Q9WMX2)
T3 construct: approximately 65 kDa HCV genotype 1b NS5B protein; made in house
Assay: HCV polymerase enzyme assay, wild-type 1b
Type: biochemical
Conditions: not given
Excerpt: as §1
(§5) The enzymatic activity assay measured the inhibitory effect of increasing concentrations of test compound on the incorporation of α-[^33P]-labeled nucleotide into trichloroacetic acid-precipitable material. Recombinant polymerase and synthetic RNA template were combined in reaction buffer containing ribonucleoside triphosphates, α-[^33P]-labeled nucleotide and eight concentrations of test compound in three-fold dilutions. Reactions were incubated for two hours at 30° C.
as §3, §4

SMILES	pIC50
CC(OP(=O)(O)OP(=O)(O)OP(=O)(O)O)C12COC(C(n3cnc4c(=O)[nH]c(N)nc43)O1)C2O (single isomer, unassigned) [Compound 102 Diastereomer 2]	< 5.00
CCOc1nc(N)nc2c1ncn2[C@@H]1O[C@@]2(COP(=O)(N[C@@H](C)C(=O)OC(C)C)Oc3ccccc3)CO[C@@H]1[C@@H]2O (some centres unmarked) [Compound 25]	6.00 to 6.60
Nc1ncnc2c1ncn2[C@@H]1O[C@@]2(COP(=O)(O)OP(=O)(O)OP(=O)(O)O)CO[C@@H]1[C@@H]2O [Compound 101]	< 5.00
Nc1nc2c(ncn2[C@@H]2O[C@@]3(COP(=O)(O)OP(=O)(O)OP(=O)(O)O)CO[C@@H]2[C@@H]3O)c(=O)[nH]1 [Compound 103]	6.00 to 6.60
C[C@H](OP(=O)(O)OP(=O)(O)OP(=O)(O)O)[C@@]12CO[C@@H]([C@H](n3ccc(=O)[nH]c3=O)O1)[C@@H]2O [Compound 104a]	< 5.00
C[C@@H](OP(=O)(O)OP(=O)(O)OP(=O)(O)O)[C@@]12CO[C@@H]([C@H](n3ccc(=O)[nH]c3=O)O1)[C@@H]2O [Compound 104b]	< 5.00
C[C@]12OC[C@](COP(=O)(O)OP(=O)(O)OP(=O)(O)O)(O[C@H]1n1cnc3c(=O)[nH]c(N)nc31)[C@H]2O [Compound 106]	> 6.60
Nc1ccn([C@@H]2O[C@@]3(COP(=O)(O)OP(=O)(O)OP(=O)(O)O)CO[C@@H]2[C@@H]3O)c(=O)n1 [Compound 107]	5.00 to 6.00
O=c1ccn([C@@H]2O[C@@]3(COP(=O)(O)OP(=O)(O)OP(=O)(O)O)CO[C@@H]2[C@@H]3O)c(=O)[nH]1 [Compound 108]	5.00 to 6.00
[N-]=[N+]=N[C@H]1[C@H]2OC[C@]1(COP(=O)(O)OP(=O)(O)OP(=O)(O)O)O[C@H]2n1ccc(=O)[nH]c1=O [Compound 401]	< 5.00
C[C@H]1O[C@H]2[C@H](n3cnc4c(=O)[nH]c(N)nc43)O[C@]1(COP(=O)(O)OP(=O)(O)OP(=O)(O)O)[C@H]2O [Compound 426]	< 5.00
C[C@H]1O[C@H]2[C@H](n3ccc(=O)[nH]c3=O)O[C@]1(COP(=O)(O)OP(=O)(O)OP(=O)(O)O)[C@H]2O [Compound 427]	< 5.00
Nc1nc2c(ncn2[C@@H]2O[C@@]3(COP(=O)(O)OP(=O)(O)OP(=O)(O)O)CN[C@@H]2[C@@H]3O)c(=O)[nH]1 [Compound 570]	< 5.00
N[C@H]1[C@H]2OC[C@]1(COP(=O)(O)OP(=O)(O)OP(=O)(O)O)O[C@H]2n1ccc(=O)[nH]c1=O [Compound 571]	< 5.00

Target: T4, HCV polymerase wild-type genotype 3a protein (Hepatitis C virus genotype 3a, UniProt Q81258)
T4 construct: used to generate recombinant HCV polymerases; made in house
Assay: HCV polymerase enzyme assay, wild-type 3a
Type: biochemical
Conditions: purified recombinant polymerase; compounds as nucleoside triphosphates
Excerpt: as §1, §2, §3, §4

T4 sequence (Q81258 2431-3000): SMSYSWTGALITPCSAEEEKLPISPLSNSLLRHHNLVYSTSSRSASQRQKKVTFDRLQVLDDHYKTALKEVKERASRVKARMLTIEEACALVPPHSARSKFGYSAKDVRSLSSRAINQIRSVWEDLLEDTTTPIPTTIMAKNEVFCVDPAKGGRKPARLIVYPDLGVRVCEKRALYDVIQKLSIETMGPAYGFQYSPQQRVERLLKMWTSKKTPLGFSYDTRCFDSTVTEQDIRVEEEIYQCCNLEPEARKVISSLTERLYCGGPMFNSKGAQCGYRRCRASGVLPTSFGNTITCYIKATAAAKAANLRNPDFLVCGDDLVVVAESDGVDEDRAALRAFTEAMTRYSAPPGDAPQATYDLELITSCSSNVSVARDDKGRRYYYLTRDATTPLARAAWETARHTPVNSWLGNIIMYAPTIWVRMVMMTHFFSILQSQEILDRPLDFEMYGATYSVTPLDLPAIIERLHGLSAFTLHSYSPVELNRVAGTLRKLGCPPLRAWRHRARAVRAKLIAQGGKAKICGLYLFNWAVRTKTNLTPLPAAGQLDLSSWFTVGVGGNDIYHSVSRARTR

SMILES	pIC50
Nc1nc2c(ncn2[C@@H]2O[C@@]3(COP(=O)(O)OP(=O)(O)OP(=O)(O)O)CO[C@@H]2[C@@H]3O)c(=O)[nH]1 [Compound 103]	> 6.60

Target: T5, HCV genotype 1b NS5B protein containing the S282T mutation (Hepatitis C virus genotype 1b, UniProt Q9WMX2, S2701T)
T5 construct: approximately 65 kDa HCV genotype 1b NS5B protein; made in house
Assay: HCV polymerase enzyme assay, S282T 1b
Type: biochemical
Conditions: not given
Excerpt: as §1, §5, §3, §4

SMILES	pIC50
CCOc1nc(N)nc2c1ncn2[C@@H]1O[C@@]2(COP(=O)(N[C@@H](C)C(=O)OC(C)C)Oc3ccccc3)CO[C@@H]1[C@@H]2O (some centres unmarked) [Compound 25]	6.00 to 6.60

Same assay, conditions: purified recombinant polymerase; compounds as nucleoside triphosphates; read-out: S282T 1b IC50

SMILES	pIC50
CC(OP(=O)(O)OP(=O)(O)OP(=O)(O)O)C12COC(C(n3cnc4c(=O)[nH]c(N)nc43)O1)C2O (single isomer, unassigned) [Compound 102 Diastereomer 1]	< 5.00
CC(OP(=O)(O)OP(=O)(O)OP(=O)(O)O)C12COC(C(n3cnc4c(=O)[nH]c(N)nc43)O1)C2O (single isomer, unassigned) [Compound 102 Diastereomer 2]	< 5.00
Nc1ncnc2c1ncn2[C@@H]1O[C@@]2(COP(=O)(O)OP(=O)(O)OP(=O)(O)O)CO[C@@H]1[C@@H]2O [Compound 101]	< 5.00
Nc1nc2c(ncn2[C@@H]2O[C@@]3(COP(=O)(O)OP(=O)(O)OP(=O)(O)O)CO[C@@H]2[C@@H]3O)c(=O)[nH]1 [Compound 103]	6.00 to 6.60
C[C@H](OP(=O)(O)OP(=O)(O)OP(=O)(O)O)[C@@]12CO[C@@H]([C@H](n3ccc(=O)[nH]c3=O)O1)[C@@H]2O [Compound 104a]	< 5.00
C[C@@H](OP(=O)(O)OP(=O)(O)OP(=O)(O)O)[C@@]12CO[C@@H]([C@H](n3ccc(=O)[nH]c3=O)O1)[C@@H]2O [Compound 104b]	< 5.00
C[C@]12OC[C@](COP(=O)(O)OP(=O)(O)OP(=O)(O)O)(O[C@H]1n1cnc3c(=O)[nH]c(N)nc31)[C@H]2O [Compound 106]	6.00 to 6.60
Nc1ccn([C@@H]2O[C@@]3(COP(=O)(O)OP(=O)(O)OP(=O)(O)O)CO[C@@H]2[C@@H]3O)c(=O)n1 [Compound 107]	5.00 to 6.00
O=c1ccn([C@@H]2O[C@@]3(COP(=O)(O)OP(=O)(O)OP(=O)(O)O)CO[C@@H]2[C@@H]3O)c(=O)[nH]1 [Compound 108]	< 5.00

Target: T6, HCV polymerase wild-type genotype 4a protein (Hepatitis C virus genotype 4a, UniProt O39929)
T6 construct: used to generate recombinant HCV polymerases; made in house
Assay: HCV polymerase enzyme assay, wild-type 4a
Type: biochemical
Conditions: purified recombinant polymerase; compounds as nucleoside triphosphates
Excerpt: as §1, §2, §3, §4

T6 sequence (O39929 2418-2987): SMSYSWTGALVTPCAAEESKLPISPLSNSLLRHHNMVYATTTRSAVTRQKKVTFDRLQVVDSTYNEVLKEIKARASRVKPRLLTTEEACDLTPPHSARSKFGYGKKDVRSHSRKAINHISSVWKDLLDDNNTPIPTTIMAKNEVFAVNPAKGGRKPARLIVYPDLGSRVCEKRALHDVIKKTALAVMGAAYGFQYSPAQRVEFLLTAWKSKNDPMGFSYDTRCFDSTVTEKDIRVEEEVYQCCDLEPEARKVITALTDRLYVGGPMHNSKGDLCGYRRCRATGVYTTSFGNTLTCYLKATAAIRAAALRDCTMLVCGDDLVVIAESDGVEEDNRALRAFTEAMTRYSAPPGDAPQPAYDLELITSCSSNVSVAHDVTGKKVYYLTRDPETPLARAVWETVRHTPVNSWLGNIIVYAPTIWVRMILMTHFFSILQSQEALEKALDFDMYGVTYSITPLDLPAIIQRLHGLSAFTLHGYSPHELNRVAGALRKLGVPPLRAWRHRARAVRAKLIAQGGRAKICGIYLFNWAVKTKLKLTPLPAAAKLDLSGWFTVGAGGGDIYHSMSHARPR

SMILES	pIC50
Nc1nc2c(ncn2[C@@H]2O[C@@]3(COP(=O)(O)OP(=O)(O)OP(=O)(O)O)CO[C@@H]2[C@@H]3O)c(=O)[nH]1 [Compound 103]	6.00 to 6.60

Test system: HCV genotype 1b replicon in Huh-7-derived cell line (Zluc)
Assay: HCV replicon assay (luciferase reporter)
Type: cell-based
Conditions: Hepatitis C virus, Zluc cells, 72 hours of incubation
Experimental: Huh-7-derived cell line (Zluc) that harbors an HCV genotype 1b replicon and a luciferase reporter gene was grown in Dulbecco's Modified Eagle Medium (DMEM) supplemented with 10% fetal bovine serum, 2 mM GlutaMAX, 1% MEM nonessential amino acids, 100 IU/mL penicillin, 100 μg/mL streptomycin, and 0.5 mg/mL Geneticin® (G418). For dose response testing the cells were seeded in 96-well plates at 7.5×10^3 cells per well in a volume of 50 μL, and incubated at 37° C./5% CO2. Drug solutions were made up freshly in Huh-7 media as 2× stocks. Ten additional 5-fold dilutions were prepared from these stocks in DMEM without G418. At least three hours after Zluc cells were seeded, drug treatment was initiated by adding 50 μL of drug dilutions to the plates in duplicate. Final concentrations of drug ranged from 100 μM to […]. Cells were then incubated at 37° C./5% CO2. Alternatively, compounds were tested at two concentrations (1 μM and 10 μM). […] For this, media was removed from the plates via gentle tapping. Fifty microliters of ONE-glo luciferase assay reagent was added to each well. The plates were shaken gently for 3 min at room temperature and luminescence was measured on a Victor^3 V 1420 multilabel counter (Perkin Elmer) with a 1 second read time using a 700 nm cut-off filter. The EC50 values were calculated from dose response curves from the resulting best-fit equations determined by Microsoft Excel and XLfit 4.1 software. When screening at two fixed concentrations, the results were expressed as % inhibition at 1 μM and 10 μM.

SMILES	pEC50
[N-]=[N+]=N[C@H]1[C@H]2OC[C@]1(CO)O[C@H]2n1ccc(=O)[nH]c1=O [Compound 33]	< 5.00
CC(=O)N[C@H]1[C@H]2OC[C@]1(CO)O[C@H]2n1ccc(=O)[nH]c1=O [Compound 35]	< 5.00
CS(=O)(=O)N[C@H]1[C@H]2OC[C@]1(CO)O[C@H]2n1ccc(=O)[nH]c1=O [Compound 36]	< 5.00
COC(=O)N[C@H]1[C@H]2OC[C@]1(CO)O[C@H]2n1ccc(=O)[nH]c1=O [Compound 37]	< 5.00
Nc1nc2c(ncn2[C@@H]2O[C@@]3(CO)CN[C@@H]2[C@@H]3O)c(=O)[nH]1 [Compound 38]	< 5.00
